Experimental data taken from ChEMBL document CHEMBL1138605, “Identification of 3-substituted N-benzhydryl-nortropane analogs as nociceptin receptor ligands for the management of cough and anxiety” (Bioorg Med Chem Lett, 2009).
Calls of active or inactive are those of the source. No cut-off for these calls is given here.

How the values were obtained:
Mu-type opioid receptor [1] = biological target: T1, Mu-type opioid receptor (Homo sapiens, UniProt P35372); experiment: Displacement of [3H]diprenorphine from human mu opioid receptor expressed in CHO cells; assay type: cell-based
T1 sequence (P35372 whole entry): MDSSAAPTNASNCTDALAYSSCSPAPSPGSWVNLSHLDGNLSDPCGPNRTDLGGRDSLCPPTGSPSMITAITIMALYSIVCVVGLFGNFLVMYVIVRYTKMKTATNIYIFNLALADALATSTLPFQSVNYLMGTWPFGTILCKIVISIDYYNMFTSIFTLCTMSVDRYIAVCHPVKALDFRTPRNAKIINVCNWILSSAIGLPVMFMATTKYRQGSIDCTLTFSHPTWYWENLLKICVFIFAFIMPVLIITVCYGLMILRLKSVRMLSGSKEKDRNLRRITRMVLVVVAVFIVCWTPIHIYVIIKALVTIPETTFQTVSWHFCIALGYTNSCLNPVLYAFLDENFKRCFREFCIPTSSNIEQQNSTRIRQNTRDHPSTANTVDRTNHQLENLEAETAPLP

Homo sapiens = organism: Homo sapiens; experiment: Selectivity for human cloned ORL1 receptor over human mu opioid receptor
Nociceptin receptor [2] = biological target: T2, Nociceptin receptor (Homo sapiens, UniProt P41146); experiment: Displacement of [125I][Tyr14]nociceptin from human cloned ORL1 receptor expressed in CHO cells; assay type: cell-based
T2 sequence (P41146 whole entry): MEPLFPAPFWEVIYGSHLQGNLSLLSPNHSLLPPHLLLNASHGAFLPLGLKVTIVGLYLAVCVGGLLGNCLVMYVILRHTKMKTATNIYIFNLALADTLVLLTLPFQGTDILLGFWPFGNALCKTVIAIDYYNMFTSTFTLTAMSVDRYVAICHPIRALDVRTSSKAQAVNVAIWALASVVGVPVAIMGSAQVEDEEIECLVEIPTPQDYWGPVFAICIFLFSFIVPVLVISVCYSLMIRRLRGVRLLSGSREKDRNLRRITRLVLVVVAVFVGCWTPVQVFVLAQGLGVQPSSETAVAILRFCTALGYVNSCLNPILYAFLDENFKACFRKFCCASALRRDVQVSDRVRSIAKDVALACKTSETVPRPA

[3] = biological target: T3, Nuclear receptor subfamily 1 group I member 2 (Homo sapiens, UniProt O75469); experiment: Activity at PXR in human hepatocytes assessed as induction of CYP3A4 activity at 1 uM relative rifampicin; assay type: cell-based, Hepatocyte
T3 sequence (O75469 whole entry): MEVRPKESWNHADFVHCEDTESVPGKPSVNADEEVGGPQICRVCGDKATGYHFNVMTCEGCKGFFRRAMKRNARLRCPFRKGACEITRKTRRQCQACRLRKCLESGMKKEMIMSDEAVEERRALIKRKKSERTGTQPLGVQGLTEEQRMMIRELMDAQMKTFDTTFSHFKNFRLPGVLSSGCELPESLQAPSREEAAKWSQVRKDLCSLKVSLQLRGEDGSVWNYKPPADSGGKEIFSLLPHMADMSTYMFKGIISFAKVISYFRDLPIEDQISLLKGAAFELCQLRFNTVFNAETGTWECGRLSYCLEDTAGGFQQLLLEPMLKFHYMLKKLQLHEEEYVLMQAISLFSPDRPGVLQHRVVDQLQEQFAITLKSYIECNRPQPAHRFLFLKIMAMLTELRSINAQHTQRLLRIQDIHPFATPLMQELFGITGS

Mu-type opioid receptor [4] = biological target: T1, Mu-type opioid receptor; experiment: Agonist activity at human mu opioid receptor assessed as stimulation of GTPgammaS binding at 10 uM; assay type: functional
Mu-type opioid receptor [5] = biological target: T1, Mu-type opioid receptor; experiment: Agonist activity at human mu opioid assessed as stimulation of GTPgammaS binding; assay type: functional
Nociceptin receptor [6] = biological target: T2, Nociceptin receptor; experiment: Agonist activity at human cloned ORL1 receptor assessed as stimulation of GTPgammaS binding at 10 uM; assay type: functional
Nociceptin receptor [7] = biological target: T2, Nociceptin receptor; experiment: Agonist activity at human cloned ORL1 receptor assessed as stimulation of GTPgammaS binding; assay type: functional
Rattus norvegicus = organism: Rattus norvegicus; experiment: Anxiolytic like activity in rat assessed as conditioned lick suppression after 2 hrs; assay type: functional
[8] = Ratio of ED50 for antitussive activity in guinea pig GPPV model to ED50 for anxiolytic like activity in rat; assay type: functional
[9] = biological target: Delta-type opioid receptor (Homo sapiens, UniProt P41143); experiment: Displacement of [3H]diprenorphine from human delta opioid receptor expressed in CHO cells; assay type: cell-based
Chain of Delta-type opioid receptor (P41143 whole entry): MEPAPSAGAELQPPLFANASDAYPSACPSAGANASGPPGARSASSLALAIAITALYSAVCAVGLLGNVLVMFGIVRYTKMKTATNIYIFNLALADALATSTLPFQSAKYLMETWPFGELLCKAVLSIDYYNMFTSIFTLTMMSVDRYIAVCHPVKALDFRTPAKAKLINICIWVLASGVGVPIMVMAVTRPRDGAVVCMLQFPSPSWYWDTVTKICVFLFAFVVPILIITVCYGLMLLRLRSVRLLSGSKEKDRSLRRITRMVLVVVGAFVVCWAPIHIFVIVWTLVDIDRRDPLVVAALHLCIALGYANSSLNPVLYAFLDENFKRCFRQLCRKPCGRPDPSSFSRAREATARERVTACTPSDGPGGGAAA

Cavia porcellus [10] = organism: Cavia porcellus; experiment: Anxiolytic like activity in guinea pig assessed as reduction in number of vocalization produced due to separation measured after 2 hrs; assay type: functional
Cavia porcellus [11] = experiment: Antitussive activity in po dosed guinea pig GPPV model assessed as reduction of capsaicin-induced coughing after 2 hrs administered 15 mins before capsaicin challenge; assay type: functional
[12] = biological target: Kappa-type opioid receptor (Homo sapiens, UniProt P41145); experiment: Displacement of [3H]diprenorphine from human kappa opioid receptor expressed in CHO cells; assay type: cell-based
Chain of Kappa-type opioid receptor (P41145 whole entry): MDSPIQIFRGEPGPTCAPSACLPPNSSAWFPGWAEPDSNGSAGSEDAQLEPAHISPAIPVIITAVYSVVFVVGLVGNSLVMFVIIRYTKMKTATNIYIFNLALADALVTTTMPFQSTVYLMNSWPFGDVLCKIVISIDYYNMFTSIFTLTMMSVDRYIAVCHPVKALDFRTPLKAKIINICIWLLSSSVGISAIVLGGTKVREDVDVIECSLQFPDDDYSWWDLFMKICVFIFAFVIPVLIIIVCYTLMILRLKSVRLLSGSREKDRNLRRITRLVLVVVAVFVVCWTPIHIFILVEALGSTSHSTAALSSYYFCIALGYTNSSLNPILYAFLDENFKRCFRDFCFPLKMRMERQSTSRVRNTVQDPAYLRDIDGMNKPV

Cavia porcellus [13] = experiment: Antitussive activity in guinea pig GPPV model assessed as reduction of capsaicin-induced coughing at 0.3 mg/kg, po after 2 hrs administered 15 mins before capsaicin challenge; assay type: functional
Nociceptin receptor [14] = biological target: T2, Nociceptin receptor; experiment: Agonist activity at human cloned ORL1 receptor assessed as stimulation of GTPgammaS binding at 5.5 uM; assay type: functional
Mu-type opioid receptor [15] = biological target: T1, Mu-type opioid receptor; experiment: Agonist activity at human mu opioid receptor assessed as stimulation of GTPgammaS binding at 5.5 uM; assay type: functional
Cavia porcellus [16] = experiment: Anxiolytic like activity in guinea pig assessed as reduction in number of vocalization produced due to separation measured at 3 mg/kg, po after 2 hrs; assay type: functional, organism-based; parameters: dose 3 mg/kg

Row | Compound | Ki (Mu-type opioid receptor [1]) | fold change (FC) (Homo sapiens) | Ki (Nociceptin receptor [2]) | Ratio [3] | other results
1 | NC(=O)c1ccc([C@@]2(C(N)=O)C[C@H]3CC[C@@H](C2)N3C(c2ccccc2Cl)c2ccccc2Cl)nc1 | 1.32 µM | 4 | 0.401 µM | – | –
2 | N[C@]1(Cc2ccc(Cl)cc2)C[C@H]2CC[C@@H](C1)N2C(c1ccccc1Cl)c1ccccc1Cl | 0.447 µM | – | 0.036 µM | – | –
3 | NC(=O)[C@]1(c2ccc(N)cn2)C[C@H]2CC[C@@H](C1)N2C(c1ccccc1Cl)c1ccccc1Cl | 0.205 µM | 4 | 0.031 µM | – | –
4 | CN(C)[C@]1(c2ccccn2)C[C@H]2CC[C@@H](C1)N2C(c1ccccc1Cl)c1ccccc1Cl | 0.84 µM | – | 0.042 µM | – | –
5 | COC(=O)N[C@]1(c2ccc(Cl)cn2)C[C@H]2CC[C@@H](C1)N2C(c1ccccc1Cl)c1ccccc1Cl | 0.961 µM | 74 | 0.012 µM | 1.06 | –
6 | NC(=O)[C@]1(c2ccc(Br)nc2)C[C@H]2CC[C@@H](C1)N2C(c1ccccc1Cl)c1ccccc1Cl | 0.046 µM | – | 0.013 µM | – | –
7 | NC(=O)[C@]1(c2ncc(F)cc2F)C[C@H]2CC[C@@H](C1)N2C(c1ccccc1Cl)c1ccccc1Cl | – | – | 0.047 µM | – | –
8 | NC(=O)[C@@]1(Cc2ccc(F)cc2)C[C@H]2CC[C@@H](C1)N2C(c1ccccc1Cl)c1ccccc1Cl | 0.085 µM | – | 0.003 µM | 0.48 | Activity (Mu-type opioid receptor [4]): 107%; EC50 (Mu-type opioid receptor [5]): 0.54 µM; Activity (Nociceptin receptor [6]): 108%; EC50 (Nociceptin receptor [7]): 0.011 µM
9 | NC(=O)[C@]1(c2ccc(F)cn2)C[C@H]2CC[C@@H](C1)N2C(c1ccccc1Cl)c1ccccc1Cl | 0.123 µM | 37 | 0.007 µM | 0.29 | ED50 (Rattus norvegicus): 1.7 mg/kg; EC50 (Mu-type opioid receptor [5]): 0.733 µM; Ratio ED50 [8]: 15; Ki [9]: 3.35 µM; ED50 (Cavia porcellus [10]): 0.3 mg/kg; Activity (Nociceptin receptor [6]): 95%; ED50 (Cavia porcellus [11]): 0.02 mg/kg; EC50 (Nociceptin receptor [7]): 0.02 µM; Ki [12]: 1.61 µM
10 | NC(=O)[C@]1(c2ccc(C(F)(F)F)cn2)C[C@H]2CC[C@@H](C1)N2C(c1ccccc1Cl)c1ccccc1Cl | – | 4 | 0.122 µM | – | –
11 | NC(=O)C1(C2CCCCN2)C[C@H]2CC[C@H](C1)N2C(c1ccccc1Cl)c1ccccc1Cl (relative stereo) | 0.474 µM | – | 0.017 µM | – | –
12 | N[C@]1(c2ccccn2)C[C@H]2CC[C@@H](C1)N2C(c1ccccc1Cl)c1ccccc1Cl | 0.343 µM | 32 | 0.01 µM | 0.47 | Activity (Cavia porcellus [13]): inactive
13 | NC(=O)[C@]1(c2ccccn2)C[C@H]2CC[C@@H](C1)N2C(c1ccccc1Cl)c1ccccc1Cl | 0.052 µM | – | 0.004 µM | 0.79 | –
14 | COC(=O)N[C@]1(Cc2ccc(Cl)cc2)C[C@H]2CC[C@@H](C1)N2C(c1ccccc1Cl)c1ccccc1Cl | – | – | 0.056 µM | 1.1 | Activity (Nociceptin receptor [14]): 85%; EC50 (Mu-type opioid receptor [5]): 1.56 µM; Activity (Mu-type opioid receptor [15]): 59%; EC50 (Nociceptin receptor [7]): 0.014 µM
15 | NC(=O)[C@]1(Cc2ccc(Cl)cc2)C[C@H]2CC[C@@H](C1)N2C(c1ccccc1Cl)c1ccccc1Cl | 0.284 µM | – | 0.01 µM | 0.67 | –
16 | COC(=O)c1ccc([C@@]2(C(N)=O)C[C@H]3CC[C@@H](C2)N3C(c2ccccc2Cl)c2ccccc2Cl)nc1 | – | 4 | > 1 µM | – | –
17 | COC(=O)NC1(c2ccc(F)cn2)C[C@H]2CC[C@H](C1)N2C(c1ccccc1Cl)c1ccccc1Cl (relative stereo) | 0.887 µM | 74 | 0.012 µM | 1.38 | –
18 | NC(=O)[C@]1(c2cccnc2)C[C@H]2CC[C@@H](C1)N2C(c1ccccc1Cl)c1ccccc1Cl | 0.071 µM | – | 0.003 µM | 0.4 | –
19 | CC(=O)NC[C@]1(c2ccccc2)C[C@H]2CC[C@@H](C1)N2C(c1ccccc1Cl)c1ccccc1Cl | – | – | 0.02 µM | 0.94 | ED50 (Cavia porcellus [11]): 0.19 mg/kg; EC50 (Nociceptin receptor [7]): 0.269 µM
20 | CC(=O)N[C@]1(c2ccccn2)C[C@H]2CC[C@@H](C1)N2C(c1ccccc1Cl)c1ccccc1Cl | 0.312 µM | 52 | 0.006 µM | 1.97 | Activity (Mu-type opioid receptor [4]): 68%; EC50 (Mu-type opioid receptor [5]): 1.93 µM; Activity (Nociceptin receptor [6]): 84%; EC50 (Nociceptin receptor [7]): 0.019 µM

Row | Compound | Ki (Mu-type opioid receptor [1]) | fold change (FC) (Homo sapiens) | Ki (Nociceptin receptor [2]) | Ratio [3] | other results
21 | NC(=O)[C@]1(c2ccc(O)cn2)C[C@H]2CC[C@@H](C1)N2C(c1ccccc1Cl)c1ccccc1Cl | – | 4 | 0.072 µM | – | –
22 | NC(=O)[C@]1(c2ccncc2)C[C@H]2CC[C@@H](C1)N2C(c1ccccc1Cl)c1ccccc1Cl | 0.265 µM | 20 | 0.079 µM | – | –
23 | NC(=O)[C@]1(c2ccc(Br)cn2)C[C@H]2CC[C@@H](C1)N2C(c1ccccc1Cl)c1ccccc1Cl | 0.153 µM | 4 | 0.029 µM | 0.09 | Activity (Mu-type opioid receptor [4]): 89%; EC50 (Mu-type opioid receptor [5]): 0.421 µM; Activity (Nociceptin receptor [6]): 75%; EC50 (Nociceptin receptor [7]): 0.063 µM
24 | COC(=O)N[C@]1(c2ccccn2)C[C@H]2CC[C@@H](C1)N2C(c1ccccc1Cl)c1ccccc1Cl | 0.741 µM | 74 | 0.01 µM | 0.98 | Activity (Mu-type opioid receptor [4]): 52%; EC50 (Mu-type opioid receptor [5]): 3.78 µM; Activity (Nociceptin receptor [6]): 92%; EC50 (Nociceptin receptor [7]): 0.087 µM
25 | CC(=O)N[C@]1(c2ccc(F)cn2)C[C@H]2CC[C@@H](C1)N2C(c1ccccc1Cl)c1ccccc1Cl | 0.601 µM | 60 | 0.01 µM | 1.47 | –
26 | NC(=O)C[C@]1(Cc2ccc(O)cc2)C[C@H]2CC[C@@H](C1)N2C(c1ccccc1Cl)c1ccccc1Cl | – | – | 0.017 µM | 0.51 | –
27 | COc1ccc2c3c1O[C@H]1[C@@H](O)C=C[C@H]4[C@@H](C2)N(C)CC[C@@]341 [CODEINE] | – | – | – | – | ED50 (Cavia porcellus [11]): 6.7 mg/kg
28 | NC(=O)[C@]1(c2cc(F)cc(F)n2)C[C@H]2CC[C@@H](C1)N2C(c1ccccc1Cl)c1ccccc1Cl | 0.468 µM | – | 0.015 µM | 0.55 | –
29 | NC(=O)[C@]1(c2cc(C(=O)O)c(F)cn2)C[C@H]2CC[C@@H](C1)N2C(c1ccccc1Cl)c1ccccc1Cl | – | – | > 1 µM | – | –
30 | N#Cc1ccc([C@@]2(C(N)=O)C[C@H]3CC[C@@H](C2)N3C(c2ccccc2Cl)c2ccccc2Cl)nc1 | 0.481 µM | 4 | 0.075 µM | – | –
31 | N[C@]1(c2ccc(F)cn2)C[C@H]2CC[C@@H](C1)N2C(c1ccccc1Cl)c1ccccc1Cl | 0.209 µM | 32 | 0.007 µM | 0.23 | Activity (Cavia porcellus [13]): inactive
32 | NC(=O)[C@]1(c2nc(F)ccc2F)C[C@H]2CC[C@@H](C1)N2C(c1ccccc1Cl)c1ccccc1Cl | – | – | 0.016 µM | 0.83 | –
33 | Cc1ccc([C@@]2(C(N)=O)C[C@H]3CC[C@@H](C2)N3C(c2ccccc2Cl)c2ccccc2Cl)nc1 | 0.026 µM | – | 0.006 µM | 0.4 | –
34 | NC(=O)[C@]1(c2cc(CF)c(F)cn2)C[C@H]2CC[C@@H](C1)N2C(c1ccccc1Cl)c1ccccc1Cl | 0.367 µM | – | 0.019 µM | 0.77 | –
35 | NC(=O)[C@]1(c2cc(F)c(F)cn2)C[C@H]2CC[C@@H](C1)N2C(c1ccccc1Cl)c1ccccc1Cl | 0.074 µM | – | 0.009 µM | 0.18 | –
36 | NC(=O)[C@]1(c2cccc(F)n2)C[C@H]2CC[C@@H](C1)N2C(c1ccccc1Cl)c1ccccc1Cl | 0.348 µM | 35 | 0.01 µM | 1.06 | –
37 | NC(=O)[C@]1(c2ccc(Cl)cn2)C[C@H]2CC[C@@H](C1)N2C(c1ccccc1Cl)c1ccccc1Cl | 0.143 µM | – | 0.015 µM | 0.27 | ED50 (Rattus norvegicus): 2.4 mg/kg; Activity (Mu-type opioid receptor [4]): 97%; EC50 (Mu-type opioid receptor [5]): 0.368 µM; Activity (Nociceptin receptor [6]): 145%; EC50 (Nociceptin receptor [7]): 0.044 µM
38 | NC(=O)C[C@]1(Cc2ccc(F)cc2)C[C@H]2CC[C@@H](C1)N2C(c1ccccc1Cl)c1ccccc1Cl | 0.19 µM | 63 | 0.003 µM | 0.35 | Activity (Cavia porcellus [13]): 38%; Activity (Cavia porcellus [16]): inactive
39 | COc1ccc([C@@]2(C(N)=O)C[C@H]3CC[C@@H](C2)N3C(c2ccccc2Cl)c2ccccc2Cl)nc1 | 0.133 µM | – | 0.022 µM | 0.19 | –
